Key:
[1] = Inhibition of potato LOX5 by enzyme immuno assay; set-up: species or system Solanum tuberosum
[2] = tested on: Rattus norvegicus; assay: Antiinflammatory activity against carrageenan-induced orally dosed rat assessed paw edema after 3 hrs; format: functional; conditions: po
[3] = target: T1, Prostaglandin G/H synthase 1 (Ovis aries, UniProt P05979)
T1 sequence (P05979 whole entry): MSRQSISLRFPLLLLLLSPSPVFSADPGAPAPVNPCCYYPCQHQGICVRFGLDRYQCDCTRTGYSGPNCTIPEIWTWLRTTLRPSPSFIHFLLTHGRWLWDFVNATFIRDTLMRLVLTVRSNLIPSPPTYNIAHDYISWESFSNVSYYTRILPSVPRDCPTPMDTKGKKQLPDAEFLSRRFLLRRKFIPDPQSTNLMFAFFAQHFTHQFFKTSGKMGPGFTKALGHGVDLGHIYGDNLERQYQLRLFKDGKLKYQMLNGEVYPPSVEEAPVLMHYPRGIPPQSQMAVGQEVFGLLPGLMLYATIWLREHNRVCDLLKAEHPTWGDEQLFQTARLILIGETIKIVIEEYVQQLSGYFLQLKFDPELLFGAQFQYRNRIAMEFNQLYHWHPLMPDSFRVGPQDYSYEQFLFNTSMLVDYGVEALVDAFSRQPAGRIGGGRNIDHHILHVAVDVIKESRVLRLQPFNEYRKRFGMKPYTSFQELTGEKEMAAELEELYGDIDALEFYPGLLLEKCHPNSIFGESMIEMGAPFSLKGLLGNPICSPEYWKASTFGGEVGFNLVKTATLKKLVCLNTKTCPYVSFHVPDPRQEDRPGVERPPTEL
Description: Inhibition of ovine COX1 by enzyme immuno assay

| IC50 [1] | IC50 [3] | SMILES | ED50 [2] |
| --- | --- | --- | --- |
| 0.35 µM | 13.2 µM | CS(=O)(=O)c1ccc(-n2nc(C(F)(F)F)cc2-c2ccn(O)c(=O)c2)cc1 | 66.9 mg/kg |
| 4.9 µM | 10.2 µM | NS(=O)(=O)c1ccc(-n2nc(C(F)(F)F)cc2-c2ccn(O)c(=O)c2)cc1 | 99.8 mg/kg |
| 3.47 µM | – | O=C(O)/C=C/c1ccc(O)c(O)c1 [CAFFEIC ACID] | – |
| > 10 µM | – | Cc1ccc(-c2cc(C(F)(F)F)nn2-c2ccc(S(N)(=O)=O)cc2)cc1 [CELECOXIB] | – |
